Experimental data taken from US7259144B2, “Methods for diagnosing and treatment of hyperphosphatemic conditions using FGF20 polypeptides” (CuraGen Corporation, priority 2003, dated 2007).

What was measured:
[1] = test system: Caco2 cells; assay: Caco2 cell proliferation (3H thymidine incorporation) with FGF-20 and kinase inhibitors; assay type: cell-based; details: inhibitor added 1 hr before FGF-20 (100 ng/ml), PD098059 1, 5, 20, 40 μM, SB203580 1, 10, 20 μM
Description: FIG. 7 depicts effect of kinase inhibitors in the proliferation of Caco2 cells. Caco2 cells were incubated with FGF-20 (100 ng/ml) in the presence of various concentrations (1, 5, 20 and 40 μM) of PD098059, inhibitor of MEK which is upstream of ERK or various concentrations (1, 10, 20 μM) of SB203580, inhibitor of p38 MAPK inhibitor.
In addition to the above results, MEK inhibitor PD098059 (1, 5, 20, and 40μM CALBIOCHEM, CA), and p38 MAPK inhibitor SB203580 (1,10,20 μM CALBIOCHEM, CA) were added to the Caco2 cell cultures 1 hr before FGF-20 treatment. Cellular proliferation was tested by standard 3H thymidine incorporation assay known in the art.

[2] = Serum phosphate levels after CG53135-05 treatment, rat model; assay type: in vivo; details: slow bolus i.v. once daily, 0.05, 5, 50 mg/kg, dose-dependent (FIG. 1)
Description: (§1) To evaluate the role of FGF20 in reduction of phosphate levels, two different animal models (rat and rhesus monkeys) were tested for serum phosphates following treatment with FGF20. Recombinant human FGF20 and the serum phosphate levels were measured. General protocols for the rat and Rhesus monkey models are outlined in the following Tables 1 (for the rat) and 2 (for the Rhesus monkey) below:
(§2) Both animal groups were dosed via a slow bolus intravenous injection in the tail vein, once daily for 14 days. The first day of dosing was designated as study day (“SD”) 1. Animals were dosed through SD 14.

[3] = test system: HT-29 cells; assay: Expression of C-Fos and C-Jun in HT-29 cells with FGF-20; assay type: cell-based; details: 100 ng/ml, 10, 30, 60 minutes
Description: (§3) FIG. 6 depicts Effect of FGF-20 on expression of kinases in intestinal epithelial cells. Caco2 cells were incubated with FGF-20 (100 ng/ml) for 10, 30, 60 minutes and expression of p-Elk-1, p-ATF-2 and p-PKC was analyzed. Similarly, HT-29 cells were incubated with FGF-20 (100 ng/ml) for 10, 30, 60 minutes and expression of C-Fos and C-Jun was analyzed.
(§4) MAPK-dependent mechanism may be involved in the regulation of phosphate uptake by FGF signaling. To test this hypothesis, various kinases were tested for their expression in the presence of 100 ng/ml of FGF-20, in Caco2 cells. […] In HT-29 cells, C-Fos and C-Jun were induced, when cultured with FGF-20 (FIG. 6).

[4] = test system: NIH 3T3 cells; assay: Induction of DNA synthesis (BrdU incorporation) in NIH 3T3 cells; assay type: cell-based; details: serum-starved NIH 3T3 cells; 18 h factor, 4 h BrdU incorporation
Description: Receptor Specificity NIH 3T3 cells were cultured in 96-well plates to approximately 100% confluence, washed and fed with DMEM without supplements (Life Technologies), and incubated for 24 h. Recombinant CG53135-01 or control protein was then added to the cells for 18 h. Control proteins used were aFGF (positive control) and platelet derived growth factor-BB (PDGFBB) (negative control). To analyze the effect of soluble FGFRs on CG53135-05 activity, recombinant CG53135-05, aFGF, or PDGF-BB (final concentrations of 10, 5 and 3 ng/mL, respectively), were mixed with soluble receptors (final concentrations of 0.2, 1 and 5 ug/mL), and incubated for 30 min at 37° C. prior to addition to serum-starved NIH 3T3 cells. Factor concentrations represent the amount of ligand needed to generate a half maximal BrdU response in NIH 3T3 cells. Soluble FGFRs were Fc chimeras of the following receptor forms (FGFR1β(IIIc); FGFR2β(IIIb); FGFR2α(IIIb); FGFR2α(IIIc); FGFR3α(IIIc); FGFR4) and were obtained from R&D Systems (Minneapolis, Minn.). The BrdU assay was performed according to the manufacturer's specifications (Roche Molecular Biochemicals, Indianapolis, Ind.) using a 4 h BrdU incorporation time.

[5] = test system: Caco2 cells; assay: Expression of signal transducing kinases in Caco2 cells with FGF-20; assay type: cell-based
Description: FIG. 4 depicts effect of FGF20 (CG53135) in stimulation of kinases in Caco2 cells. Expression of signal transducing kinases was analyzed after incubation of Caco2 cells with FGF-20 (100 ng/ml) for different time points (10, 30, 60 mins).
as §3, §4

[6] = Serum phosphate levels after CG53135-05 treatment, Rhesus monkey model; assay type: in vivo; details: slow bolus i.v. once daily, 1, 10 mg/kg, dose-dependent (FIG. 2)
Description: as §1, §2

[7] = test system: OK cells; assay: Phosphate uptake in OK cells; assay type: cell-based, opossum; details: at 50 ng/ml
Description: FIG. 8 depicts effect of FGF9 protein in phosphate transport. OK cells were treated with various concentrations of FGF9 protein and phosphate uptake was measured as noted in Example 6.
FIG. 9 depicts effect of FGF10 protein in phosphate transport. OK cells were treated with various concentrations of FGF10 protein and phosphate uptake was measured as noted in Example 6.
Measurement of phosphate transport is performed in cultured renal proximal tubular epithelial cell line using opossum kidney (OK) cells, in the presence of FGF-20 (CG53135-05). Briefly, OK cells are grown at 37° C. in Dulbecco's modified Eagle's medium with 10% fetal calf serum and seeded in multi-well dishes (6, 24, 96 well dishes). The phosphate uptake in OK cells is determined according to the method described by Hafdi et al (Biochem. J. 1996, 320:615-621).
Role of FGF9 and FGF10 in phosphate uptake was measured by the method described in Biochem. J. 1996, 320:615-621.

COc1cccc(-c2cc(=O)c3ccccc3o2)c1N [PD098059]
cellular proliferation (3H thymidine incorporation) [1]: decrease in cellular proliferation

C[S+]([O-])c1ccc(-c2nc(-c3ccncc3)c(-c3ccc(F)cc3)[nH]2)cc1 (stereo not drawn) [SB203580]
cellular proliferation (3H thymidine incorporation) [1]: decrease in cellular proliferation

CG53135-05: Recombinant human fibroblast growth factor 20 produced in E. coli; Swiss-Prot Q9NP95; SEQ ID NO:1
serum phosphate levels [2]: Statistically significant reductions | C-Fos expression [3]: induced | C-Jun expression [3]: induced | amount of ligand needed to generate a half maximal BrdU response [4]: 10 ng/mL | expression of other kinases tested ([5]; 100 ng/ml, 10, 30, 60 mins): no other kinase tested, showed any significant induction | phosphorylated MAPK (p-p38MAPK) expression ([5]; 100 ng/ml, 10, 30, 60 mins): induced | expression of phosphorylated ATF-2 ([5]; 100 ng/ml, 10, 30, 60 minutes): increased expression | expression of phosphorylated Elk-1 ([5]; 100 ng/ml, 10, 30, 60 minutes): increased expression | expression of phosphorylated Protein Kinase C ([5]; 100 ng/ml, 10, 30, 60 minutes): minimal induction | serum phosphate levels [6]: Statistically significant reductions

aFGF: positive control protein; factor known to interact with all of the FGFR's under analysis [reference compound]
amount of ligand needed to generate a half maximal BrdU response [4]: 5 ng/mL

B1: PDGF-BB: platelet derived growth factor-BB, negative control protein (protein, UniProt P01127 82-190, looked up)
Platelet-derived growth …: SLGSLTIAEPAMIAECKTRTEVFEISRRLIDRTNANFLVWPPCVEVQRCSGCCNNRNVQCRPTQVQLRPVQVRKIEIVRKKPIFKKATVTLEDHLACKCETVAAARPVT
modifications: homodimer
notes: platelet derived growth factor-BB, negative control protein
amount of ligand needed to generate a half maximal BrdU response [4]: 3 ng/mL

B2: FGF10: human FGF 10 protein, Swiss-Prot Accession No: O15520 (protein, UniProt O15520 38-208, looked up)
Fibroblast growth factor 10: QALGQDMVSPEATNSSSSSFSSPSSAGRHVRSYNHLQGDVRWRKLFSFTKYFLKIEKNGKVSGTKKENCPYSILEITSVEIGVVAVKAINSNYYLAMNKKGKLYGSKEFNNDCKLKERIEENGYNTYASFNWQHNGRQMYVALNGKGAPRRGQKTRRKNTSAHFLPMVVHS
phosphate transport [7]: more efficient in inhibiting the phosphate transport
